Results reported in patent US11512075B2 (priority 2017, dated 2022).
Entries after “also recorded” stand apart in the source; their conditions may differ.

Columns and labels:
[1] = molecular target: T1, human KOR (Homo sapiens, UniProt P41145); format: binding
[2] = molecular target: T1, human KOR; format: cell-based
[3] = tested on: chloroquine phosphate-induced pruritus in mice; set-up: species or system C57BL/6J mice; details: mouse, in vivo

| SMILES | affinity for the κ-OR (radioligand competition binding, Ki) [1] | KOR agonist potency [2] | efficacy in G protein signaling (inhibition of cAMP accumulation) [2] | suppression of itch (scratching) response [3] |
| --- | --- | --- | --- | --- |
| COC(=O)[C@@H]1C[C@H](OC(C)=O)C(=O)[C@@H]2[C@H]3C[C@@H](c4ccoc4)OC(=O)[C@@H]3CC[C@]21C [20-nor-SalA, 20-nor-salvinorin A] | high affinity | high potency | full agonist | suppressed the itch response; also recorded: similarly effective to SalA and another conventional agonist (U50,488H) |
| COC(=O)[C@@H]1C[C@H](OC(C)=O)C(=O)[C@H]2[C@@]1(C)CC[C@H]1C(=O)O[C@H](c3ccoc3)C[C@]21C [SalA, salvinorin A, reference compound] |  |  | slightly higher affinity and efficacy | suppressed the itch response |
